Source: patent publication US8664289B2, “Dye and coloring photosensitive composition” (Adeka Corporation, priority 2010, dated 2014)

Assays:
Assay type in all cases: physicochemical
[1] = Evaluation of absorption wavelength property in CHCl3 solution; design: ε: unit not given here; conditions: for ε: molar absorption coefficient
Source text: The absorption wavelength properties of Compounds Nos. 1 to 7, 16, 26, 43, 52 to 62, 65, 66, 69, 70 and 94 to 102 and Comparative Compounds Nos. 1 and 2 obtained above were each evaluated in a CHCl3 solution. The results are shown in [Table 5].

[2] = Evaluation of heat resistance by TG-DTA; conditions: temperature at 10% weight loss
Protocol: Compounds Nos. 1 to 7, 16, 26, 43, 52 to 62, 65, 66, 69, 70 and 94 to 102 and Comparative Compounds Nos. 1 and 2 obtained above were analyzed by TG-DTA, and the melting points and temperatures at 10% weight loss were measured. The results are shown in [Table 6].

[3] = Heat resistance of exposed coating film of coloring alkali-developable photosensitive composition; conditions: for Relative intensity After exposure: coating film after exposure (150 mJ/cm^2), before heating; for λmax: coating film of composition containing the compound, on glass; for Relative intensity 230° C., 30 min: exposed coating film after 230° C.
Source text: 30.33 g of ACA Z250 (manufactured by Daicel Cytec Company Ltd.) and 11.04 g of ARONIX M-450 (manufactured by Toagosei Co., Ltd.) as the component (B), 1.93 g of IRGACURE 907 (manufactured by BASF) as the component (C), 36.60 g of PGMEA and 20.08 g of cyclohexanone as the component (E), as well as 0.01 g of FZ2122 (manufactured by Dow Corning Toray Co., Ltd.) as other component were mixed and stirred until insoluble components were diminished to give Alkali-developable photosensitive composition No. 1.
1.90 g of dimethylacetamide was added to 0.10 g of Compound No. 1 obtained above as the component (A) and dissolved under stirring.
5.0 g of Alkali-developable photosensitive composition No. 1 obtained in Step 1 and 1.0 g of Dye liquid No. 1 obtained in Step 2 were mixed and stirred to homogeneous to give Coloring alkali-developable photosensitive composition No. 1 of the present invention.
Coloring alkali-developable photosensitive compositions Nos. 2 to 20 were obtained in a similar manner to that in Example 2-1, except that Compound No. 1 as the component (A) in Step 2 of Example 2-1 was changed to Compound No. 2, 3, 5, 6, 16, 53, 56, 57, 59, 60, 65, 66, 94 or 96 to 101 obtained above.
Comparative coloring alkali-developable photosensitive compositions Nos. 1 and 2 were obtained in a similar manner to that in Example 2-1, except that Compound No. 1 as the component (A) in Step 2 of Example 2-1 was changed to Comparative Compound No. 1 or 2.
The coloring alkali-developable photosensitive compositions obtained in Example 2 were each applied to a glass basal plate under a condition of 410 rpm×7 sec and dried (90° C., 90 sec) on a hot plate. The obtained coating film was exposed (150 mJ/cm^2) by using an ultrahigh pressure mercury lamp. The heat resistance of the exposed coating film was investigated under conditions of 180° C.×60 min and 230° C.×30 min. The results are shown in [Table 7].
Using the coloring alkali-developable photosensitive compositions obtained in Examples 2-2 to 2-20 and Comparative Examples 2-1 and 2-2, heat resistance was investigated in a similar manner to that in Evaluation Example 3. The results are shown in [Table 7].

[4] = Solubility in PGMEA; conditions: concentration when PGMEA was added dropwise to 0.1 g of the compound under stirring and was dissolved completely
Protocol: (§1) That the obtained solid was an intended product was confirmed by ^1H-NMR and IR. Furthermore, the solubility of the obtained compound was measured. The solubility was a concentration when PGMEA was added dropwise to 0.1 g of the compound under stirring and was dissolved completely. The results thereof are shown in [Table 1] to [Table 4].
as §1, with “added” for “added dropwise”, “while” for “under”, “4]” for “4].”

Structure (SMILES)	λmax [1] [nm]	ε [1]	10% weight loss [2] [°C]	Relative intensity After exposure [3]	λmax [3] [nm]	Relative intensity 230° C., 30 min [3]	Solubility (PGMEA) [4]
CCOC(=O)/C(C#N)=C/c1ccc(N(CC)CC)cc1 [Comparative Compound No. 1, reference compound]	430	54900	259	–	–	–	–
CCOCCOC(=O)/C(C#N)=C/c1ccc(N(CC)CC)cc1 [Comparative Compound No. 2, reference compound]	–	–	–	100	433	24.0	–
CCOCCOC(=O)C(C#N)=C(C)c1ccc(N(CC)CC)cc1 [Comparative Compound No. 2, reference compound]	432	57200	252	–	–	–	–
CCN(CC)c1ccc(/C=C(\C#N)C(=O)OCCOC(=O)/C(C#N)=C/c2ccc(N(CC)CC)cc2)cc1 [Compound No. 1]	436	107000	318	100	418	99.4	0.5 wt %
CCN(CC)c1ccc(/C=C(\C#N)C(=O)OCC(C)OC(=O)/C(C#N)=C/c2ccc(N(CC)CC)cc2)cc1 (centres unmarked) [Compound No. 2]	434	100000	312	100	430	99.3	4.0 wt %
CCN(CC)c1ccc(/C=C(\C#N)C(=O)OCCCOC(=O)/C(C#N)=C/c2ccc(N(CC)CC)cc2)cc1 [Compound No. 3]	435	104000	329	100	433	99.4	0.4 wt %
CCN(CC)c1ccc(/C=C(\C#N)C(=O)OCCCCCOC(=O)/C(C#N)=C/c2ccc(N(CC)CC)cc2)cc1 [Compound No. 4]	431	110000	335	–	–	–	0.6 wt %
CCN(CC)c1ccc(/C=C(\C#N)C(=O)OCCCCCCCOC(=O)/C(C#N)=C/c2ccc(N(CC)CC)cc2)cc1 [Compound No. 5]	430	110000	348	100	431	99.5	2.0 wt %
CCN(CC)c1ccc(/C=C(\C#N)C(=O)Oc2ccc(C(C)(C)c3ccc(OC(=O)/C(C#N)=C/c4ccc(N(CC)CC)cc4)cc3)cc2)cc1 [Compound No. 6]	440	132000	322	100	442	99.9	0.9 wt %
CCN(CC)c1ccc(/C=C(\C#N)C(=O)NCCCCCCNC(=O)/C(C#N)=C/c2ccc(N(CC)CC)cc2)cc1 [Compound No. 7]	432	99600	352	–	–	–	0.2 wt %
CCN(CC)c1ccc(/C=C(\C#N)C(=O)OCC(COC(=O)/C(C#N)=C/c2ccc(N(CC)CC)cc2)(COC(=O)/C(C#N)=C/c2ccc(N(CC)CC)cc2)COC(=O)/C(C#N)=C/c2ccc(N(CC)CC)cc2)cc1 [Compound No. 16]	439	210000	328	100	438	99.7	1.8 wt %
CCN(CC)c1ccc(/C=C(\C#N)C(=O)Oc2ccc(-c3nc(-c4ccc(OC(=O)/C(C#N)=C/c5ccc(N(CC)CC)cc5)cc4)nc(-c4ccc(OC(=O)/C(C#N)=C/c5ccc(N(CC)CC)cc5)cc4)n3)cc2)cc1 [Compound No. 26]	447	210000	321	–	–	–	1.0 or less wt %

Second part, the compound after the results:

λmax [1] [nm]	ε [1]	10% weight loss [2] [°C]	Relative intensity After exposure [3]	λmax [3] [nm]	Relative intensity 230° C., 30 min [3]	Solubility (PGMEA) [4]	Structure (SMILES)
408	62800	318	–	–	–	1.0 or less wt %	CC(COC(=O)/C(C#N)=C/c1ccc(N2CCOCC2)cc1)OC(=O)/C(C#N)=C/c1ccc(N2CCOCC2)cc1 (centres unmarked) [Compound No. 43]
441	121000	322	–	–	–	0.6 wt %	CCN(CC)c1ccc(/C=C(\C#N)C(=O)Oc2ccc(C3(c4ccc(OC(=O)/C(C#N)=C/c5ccc(N(CC)CC)cc5)cc4)CCCCC3)cc2)cc1 [Compound No. 52]
428	90500	354	–	–	–	1.0 or less wt %	CCN(CC)c1ccc(/C=C(\C#N)C(=O)NCC(C)NC(=O)/C(C#N)=C/c2ccc(N(CC)CC)cc2)cc1 (centres unmarked) [Compound No. 54]
427	84600	323	–	–	–	1.0 or less wt %	CC(COC(=O)/C(C#N)=C/c1ccc(N(C)C)cc1)OC(=O)/C(C#N)=C/c1ccc(N(C)C)cc1 (centres unmarked) [Compound No. 55]
436	160000	334	100	430	99.9	5.6 wt %	CCN(CC)c1ccc(/C=C(\C#N)C(=O)OCC(C)(COC(=O)/C(C#N)=C/c2ccc(N(CC)CC)cc2)COC(=O)/C(C#N)=C/c2ccc(N(CC)CC)cc2)cc1 [Compound No. 56]
420	80500	351	–	–	–	1.0 or less wt %	CCN(CCC#N)c1ccc(/C=C(\C#N)C(=O)OCCCCCCOC(=O)/C(C#N)=C/c2ccc(N(CC)CCC#N)cc2)cc1 [Compound No. 58]
423	90800	350	–	–	–	1.0 or less wt %	CN(C)c1ccc(/C=C(\C#N)C(=O)OCCCCCCCCCCOC(=O)/C(C#N)=C/c2ccc(N(C)C)cc2)cc1 [Compound No. 61]
409	89900	366	–	–	–	1.0 or less wt %	CC(=O)OCCN(CCOC(C)=O)c1ccc(/C=C(\C#N)C(=O)OCCCCCCCOC(=O)/C(C#N)=C/c2ccc(N(CCOC(C)=O)CCOC(C)=O)cc2)cc1 [Compound No. 62]
448	107000	336	–	–	–	1.0 or less wt %	CCCCN(CCCC)c1ccc(/C=C(\C#N)C(=O)Oc2ccc(C(c3ccc(OC(=O)/C(C#N)=C/c4ccc(N(CCCC)CCCC)cc4)cc3)(C(F)(F)F)C(F)(F)F)cc2)cc1 [Compound No. 69]
453	135000	324	–	–	–	1.0 or less wt %	CCCCN(CCCC)c1ccc(/C=C(\C#N)C(=O)Oc2ccc(S(=O)(=O)c3ccc(OC(=O)/C(C#N)=C/c4ccc(N(CCCC)CCCC)cc4)cc3)cc2)cc1 [Compound No. 70]
440	125000	354	–	–	–	7.5 wt %	CCCCN(CCCC)c1ccc(/C=C(\C#N)C(=O)OCC(C)(COC(=O)/C(C#N)=C/c2ccc(N(CCCC)CCCC)cc2)COC(=O)/C(C#N)=C/c2ccc(N(CCCC)CCCC)cc2)cc1 [Compound No. 102]
